Source: PubChem BioAssay (NCI)
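Test compounds were applied to cells in 96-well plates for 48 hours at 5 doses. GI50: concentration for 50% inhibition of growth. TGI denotes the concentration required for complete inhibition of growth.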

Legend:
Assay in all cases: growth of human tumour cells (NCI), 48 h
SNB-19 CNS = tested on: SNB-19 CNS
BT-549 breast = tested on: BT-549 breast
HCT-116 colon = tested on: HCT-116 colon
LOX IMVI melanoma = tested on: LOX IMVI melanoma
SK-MEL-5 melanoma = tested on: SK-MEL-5 melanoma
HOP-62 NSCLC = tested on: HOP-62 NSCLC
SK-OV-3 ovarian = tested on: SK-OV-3 ovarian
T-47D breast = tested on: T-47D breast
TK-10 renal = tested on: TK-10 renal
OVCAR-4 ovarian = tested on: OVCAR-4 ovarian

SMILES	TGI (SNB-19 CNS) [µM]	TGI (BT-549 breast) [µM]	TGI (HCT-116 colon) [µM]	TGI (LOX IMVI melanoma) [µM]	TGI (SK-MEL-5 melanoma) [µM]	TGI (HOP-62 NSCLC) [µM]	TGI (SK-OV-3 ovarian) [µM]	TGI (T-47D breast) [µM]	TGI (TK-10 renal) [µM]	TGI (OVCAR-4 ovarian) [µM]	GI50 (BT-549 breast) [µM]	GI50 (LOX IMVI melanoma) [µM]	GI50 (SK-MEL-5 melanoma) [µM]	GI50 (SK-OV-3 ovarian) [µM]	GI50 (TK-10 renal) [µM]
Cc1ccc(O)c(C2=NNC(c3cccc(Br)c3)C2)c1 (configuration not stated)	76.3	> 100	> 100	> 100	> 100	> 100	> 100	> 100	> 100						
CSc1nncc(-c2cc3c(c(SC)n2)CCC3)n1	> 100	> 100	> 100		> 100	> 100	> 100		> 100	> 100					
O=C(NNC(=S)Nc1ccccc1)c1csc(NC(=S)NC2CCCCC2)n1		> 100	> 100	69.5	38.8	> 100	> 100	> 100	> 100						
CC#CC(O)(C(=O)OC1CCCN(C)C1)C1=CC=CCC1 (configuration not stated)	> 100		> 100	> 100	> 100	> 100	> 100	> 100	> 100	> 100					
Nc1nc2c(ncn2C2C=CC(CO)O2)c(=O)[nH]1 (configuration not stated)	> 100	> 100	> 100	> 100	> 100	> 100		> 100	> 100	> 100					
CCOC(=O)C(Cc1ccccc1)(Cc1ccc(O)cn1)NC(=O)c1ccccc1 (configuration not stated)	> 100	81	68.4	45.2	36.6	> 100	> 100		> 100	97.7					
CC1(C)C2CC(c3ccncc3)ON2C(C)(C)N1O (configuration not stated)	> 100		> 100	> 100	> 100	> 100	> 100	> 100	> 100	> 100					
O=[As](O)(O)c1cc(N=Nc2ccc(-c3ccc(N=Nc4cc([As](=O)(O)O)c(O)cc4O)cc3)cc2)c(O)cc1O	> 100		> 100	> 100	> 100	> 100	> 100		> 100	> 56.8					
CCOC(=O)c1sc2c(c1OC(=O)c1ccccc1)c(=O)n(-c1ccccc1)c(=S)n2-c1ccccc1	> 100		74.8	> 100	49.7	54.4	> 100	> 100	> 100	32					
COc1ccc(-c2c(C#N)c(-c3ccccc3)n(NS(=O)(=O)c3ccccc3)c(=O)c2C#N)cc1	> 100	> 100	> 100	> 100	> 100	> 100	> 100		> 100	> 100					
CC1=CC[C@@H]2CC[C@]3(C)[C@H](CC[C@@H]4[C@@]5(C)CCCNC(C)(C)[C@@H]5CC[C@]43C)[C@H]2[C@@H]1C		3.14		3.01	3.08		3.5		3.37		1.66	1.66	1.7	1.89	1.81
